Data from patent publication US11191762B2, “Alkyl substituted triazole compounds as agonists of the APJ Receptor” (priority 2016, dated 2021).

Biological target: human APJ receptor (Homo sapiens (Human), UniProt P35414)
Assay: biochemical
Assay type: biochemical
Settings: not given
Protocol: The human APJ receptor was cloned by polymerase chain reaction and the gene encoding the receptor was subcloned in pFLAG-CMV™-3 expression vector (Sigma, Saint Louis, Mo. USA) in-house at Amgen. A GTPγS binding assay was performed on membranes prepared from CHO cells stably expressing human APJ receptor. The optimum experimental conditions for the concentrations of GDP, MgCl2, and NaCl in the assay buffer were initially determined. The assay was performed in 9 μL assay buffer [20 mM HEPES, pH 7.5, 5 mM MgCl2, 100 mM NaCl and 0.1% (w/v) BSA], 1 μL of diluted test compound (starting with 0.75 mM, 2-fold serial dilution with DMSO, total 22 points), 10 μL of 18 µM GDP (final concentration of 3 μM GDP), 20 μL of […] membrane protein expressing human APJ receptor captured with WGA PS beads (final concentration of 5 μg per well), and 20 μL of 0.3 nM [^35S]GTPγS (final concentration is 0.1 nM [^35S]GTPγS)(Perkin Elmer Life and Analytical Sciences, Waltham USA).

Sequence of human APJ receptor (P35414 whole entry): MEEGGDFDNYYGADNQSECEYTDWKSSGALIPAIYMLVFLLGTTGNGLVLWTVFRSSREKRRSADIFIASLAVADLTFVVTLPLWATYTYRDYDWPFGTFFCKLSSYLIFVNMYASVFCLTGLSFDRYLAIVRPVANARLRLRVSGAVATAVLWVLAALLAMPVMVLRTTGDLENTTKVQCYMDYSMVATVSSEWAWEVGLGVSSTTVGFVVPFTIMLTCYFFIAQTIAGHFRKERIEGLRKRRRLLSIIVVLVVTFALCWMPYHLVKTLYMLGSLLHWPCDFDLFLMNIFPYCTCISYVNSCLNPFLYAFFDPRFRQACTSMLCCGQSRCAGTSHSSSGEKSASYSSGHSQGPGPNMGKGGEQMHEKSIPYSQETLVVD

Compound	EC50
[2H]C([2H])([2H])OCc1nnc(NS(=O)(=O)[C@@H](C)[C@@H](OC(C)C)c2ncc(C)cn2)n1-c1c(OC)cccc1OC [Example 152.0]	6.1 nM

Same assay, conditions: [35S]GTPγS binding, membranes from CHO cells stably expressing human APJ receptor; read-out: Activity hAPJ SPA EC50 IP

Compound	EC50
COc1cccc(OC)c1-n1c(Cc2ccsc2)nnc1NS(=O)(=O)[C@@H](C)[C@H](C)c1ncc(Cl)cn1 [Example 38.0, (2S,3R)-3-(5-chloro-2-pyrimidinyl)-N-(4-(2,6-dimethoxyphenyl)-5-(3-thiophenylmethyl)-4H-1,2,4-triazol-3-yl)-2-butanesulfonamide]	6 nM
COc1ncnc(OC)c1-n1c(Cc2ccccc2)nnc1NS(=O)(=O)[C@@H](C)[C@H](C)c1ncc(Cl)cn1 [Example 21.0, (2S,3R)-N-(5-benzyl-4-(4,6-dimethoxy-5-pyrimidinyl)-4H-1,2,4-triazol-3-yl)-3-(5-chloro-2-pyrimidinyl)-2-butanesulfonamide]	120 nM
COCc1nnc(NS(=O)(=O)[C@@H](C)[C@H](OC)c2ncc(Cl)cn2)n1-c1c(F)cccc1F [Example 131.0]	20 nM
COc1cccc(OC)c1-n1c(NS(=O)(=O)[C@@H](C)[C@H](C)c2ncc(C)cn2)nnc1-c1cccc2c1CC(=O)N2 [Example 17.0, (2S,3R)-N-(4-(2,6-dimethoxyphenyl)-5-(2-oxoindolin-4-yl)-4H-1,2,4-triazol-3-yl)-3-(5-methylpyrimidin-2-yl)butane-2-sulfonamide]	350 nM
COCc1nnc(NS(=O)(=O)[C@@H](C)[C@H](OC)c2ncc(Cl)cn2)n1C1(C)CC1 [Example 59.0, (1R,2S)-1-(5-chloropyrimidin-2-yl)-1-methoxy-N-(5-(methoxymethyl)-4-(1-methylcyclopropyl)-4H-1,2,4-triazol-3-yl)propane-2-sulfonamide]	33 nM
COc1ncnc(OC)c1-n1c(NS(=O)(=O)[C@@H](C)[C@H](C)c2ncc(Cl)cn2)nnc1[C@@H](C)OC(C)C (single isomer, unassigned) [Example 2.0, (2S,3R)-3-(5-chloro-2-pyrimidinyl)-N-(4-(4,6-dimethoxy-5-pyrimidinyl)-5-((1R)-1-(1-methylethoxy)ethyl)-4H-1,2,4-triazol-3-yl)-2-butanesulfonamide or (2S,3R)-3-(5-chloro-2-pyrimidinyl)-N-(4-(4,6-dimethoxy-5-pyrimidinyl)-5-((1S)-1-(1-methylethoxy)ethyl)-4H-1,2,4-triazol-3-yl)-2-butanesulfonamide]	170 nM
COc1cccc(OC)c1-n1c(NS(=O)(=O)[C@@H](C)[C@H](C)c2ncc(C)cn2)nnc1[C@@H](OC)c1ccccc1 [Example 19.0, (2S,3R)-N-(4-(2,6-dimethoxyphenyl)-5-((S)-methoxy(phenyl)methyl)-4H-1,2,4-triazol-3-yl)-3-(5-methyl-2-pyrimidinyl)-2-butanesulfonamide]	200 nM
(S)-N-(4-(2,6-dimethoxyphenyl)-5-(methoxymethyl)-4H-1,2,4-triazol-3-yl)-l-(5-fluoropyrimidin-2-yl)piperidine-3-sulfonamide or (R)-N-(4-(2,6-dimethoxyphenyl)-5-(methoxymethyl)-4H-1,2,4-triazol-3-yl)-l-(5-fluoropyrimidin-2-yl)piperidine-3-sulfonamide [Example 78.0]	615 nM
COc1ncnc(OC)c1-n1c(COC(C)C)nnc1NS(=O)(=O)[C@@H](C)[C@H](C)c1ncc(Cl)cn1 [Example 80.0, (2S,3R)-3-(5-chloropyrimidin-2-yl)-N-(4-(4,6-dimethoxypyrimidin-5-yl)-5-(isopropoxymethyl)-4H-1,2,4-triazol-3-yl)butane-2-sulfonamide]	2.4 nM

Same assay, conditions: read-out: Activity hAPJ SPA EC50 IP

Compound	EC50
COc1cccc(OC)c1-n1c(COC(C)C)nnc1NS(=O)(=O)[C@@H](C)[C@H](C)c1ncc(Cl)cn1 [Example 161.0]	2.2 nM
COCc1nnc(NS(=O)(=O)[C@@H](C)[C@H](C)c2ncc(C)cn2)n1-c1c(OC)cccc1OC [Example 61.0, (2S,3R)-N-(4-(2,6-dimethoxyphenyl)-5-(methoxymethyl)-4H-1.2.4-triazol-3-yl)-3-(5-methylpyrimidin-2-yl)butane-2-sulfonamide]	6.7 nM
